From patent US20100227876A1 (priority 2009, published 2010)

Assays:
rats = settings: rat, in vivo; cited from earlier work
human = settings: cited from earlier work
male Sprague-Dawley rats = experiment: animal or person; assay type: in vivo, rat; settings: sc

Oc1ccc2c3c1O[C@H]1c4[nH]c5c(c4C[C@@]4(O)[C@@H](C2)N(CC2CC2)CC[C@]314)C[C@@]1(O)[C@H]2Cc3ccc(O)c4c3[C@@]1(CCN2CC1CC1)[C@H]5O4 [n-BNI, nor-binaltorphimine]
M.P.E. (maximal percent effect, antinociception) (rats): 1.0%

Oc1ccc2c(c1)[C@@]13CCCC[C@@]1(O)[C@@H](C2)N(CC1CCC1)CC3 [butorphanol]
effective human dose (human): 2 mg

CN1CC[C@]23c4c5ccc(O)c4O[C@H]2C(=O)CC[C@@]3(O)[C@H]1C5 [oxymorphone]
ED50 (male Sprague-Dawley rats; Rattus norvegicus, read-out: ED50 (M.P.E.=50%)): 0.078 mg/kg
peak effect, time post injection (male Sprague-Dawley rats; rat, in vivo): 30 min

COC(=O)/C=C/C(=O)N[C@@H]1CC[C@@]2(O)[C@H]3Cc4ccc(O)c5c4[C@@]2(CCN3CC2CC2)[C@H]1O5 [β-FNA, beta-funaltrexamine]
M.P.E. (maximal percent effect, antinociception) (rats): 1.0%
